Assays:
Assay type in all cases: in vivo
[1] = system: Galium (catchweed bedstraw, Galium aparine); assay: Test A postemergence; conditions: postemergence; for Galium plant response rating: 125 g ai/ha, visual injury rating on 0 to 100 scale (0 no effect, 100 complete control), approx. 10 d; for Plant response rating, Galium: 500 g ai/ha, 0 to 100 scale, 0 no effect, 100 complete control
Procedure, shortened: (§1)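 Seeds sprayed preemergence with a directed soil spray, or plants at 2 to 10 cm height and one- to two-leaf stage sprayed postemergence, with test chemicals in a non-phytotoxic solvent mixture containing surfactant, in loam soil–sand blend. Injury rated visually against untreated controls after about 10 d in greenhouse, 0 (no effect) to 100 (complete control).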

[2] = system: blackgrass (Alopecurus myosuroides); assay: Test A postemergence; conditions: postemergence; for Blackgrass plant response rating: 125 g ai/ha, visual injury rating on 0 to 100 scale (0 no effect, 100 complete control), approx. 10 d; for Plant response rating, Blackgrass: 500 g ai/ha, 0 to 100 scale, 0 no effect, 100 complete control
Procedure, shortened: as §1

[3] = system: ragweed (common ragweed, Ambrosia elatior); assay: Test A postemergence; conditions: postemergence; for Ragweed plant response rating: 125 g ai/ha, visual injury rating on 0 to 100 scale (0 no effect, 100 complete control), approx. 10 d; for Plant response rating, Ragweed: 500 g ai/ha, 0 to 100 scale, 0 no effect, 100 complete control
Procedure, shortened: as §1

corn (Zea mays) = assay: Test A postemergence; conditions: postemergence; for Corn plant response rating: 125 g ai/ha, visual injury rating on 0 to 100 scale (0 no effect, 100 complete control), approx. 10 d; for Plant response rating, Corn: 500 g ai/ha, 0 to 100 scale, 0 no effect, 100 complete control
Procedure, shortened: as §1

[4] = system: barnyardgrass (Echinochloa crus-galli); assay: Test A postemergence; conditions: postemergence; for Barnyardgrass plant response rating: 125 g ai/ha, visual injury rating on 0 to 100 scale (0 no effect, 100 complete control), approx. 10 d; for Plant response rating, Barnyardgrass: 500 g ai/ha, 0 to 100 scale, 0 no effect, 100 complete control
Procedure, shortened: as §1

Kochia (Kochia scoparia) [5] = assay: Test A postemergence; conditions: postemergence; for Kochia plant response rating: 125 g ai/ha, visual injury rating on 0 to 100 scale (0 no effect, 100 complete control), approx. 10 d; for Plant response rating, Kochia: 500 g ai/ha, 0 to 100 scale, 0 no effect, 100 complete control
Procedure, shortened: as §1

[6] = system: pigweed (Amaranthus retroflexus); assay: Test A postemergence; conditions: postemergence; for Pigweed plant response rating: 125 g ai/ha, visual injury rating on 0 to 100 scale (0 no effect, 100 complete control), approx. 10 d; for Plant response rating, Pigweed: 500 g ai/ha, 0 to 100 scale, 0 no effect, 100 complete control
Procedure, shortened: as §1

[7] = system: ryegrass, Italian (Italian ryegrass, Lolium multiflorum); assay: Test A postemergence; conditions: postemergence; for Ryegrass, Italian plant response rating: 125 g ai/ha, visual injury rating on 0 to 100 scale (0 no effect, 100 complete control), approx. 10 d; for Plant response rating, Ryegrass, Italian: 500 g ai/ha, 0 to 100 scale, 0 no effect, 100 complete control
Procedure, shortened: as §1

[8] = system: wheat (Triticum aestivum); assay: Test A postemergence; conditions: postemergence; for Wheat plant response rating: 125 g ai/ha, visual injury rating on 0 to 100 scale (0 no effect, 100 complete control), approx. 10 d; for Plant response rating, Wheat: 500 g ai/ha, 0 to 100 scale, 0 no effect, 100 complete control
Procedure, shortened: as §1

[9] = system: giant foxtail (Setaria faberii); assay: Test A postemergence; conditions: postemergence; for Foxtail, Giant plant response rating: 125 g ai/ha, visual injury rating on 0 to 100 scale (0 no effect, 100 complete control), approx. 10 d; for Plant response rating, Foxtail, Giant: 500 g ai/ha, 0 to 100 scale, 0 no effect, 100 complete control
Procedure, shortened: as §1

[10] = system: ragweed (common ragweed, Ambrosia elatior); assay: Test A preemergence; conditions: for Plant response rating, Ragweed: 125 g ai/ha, preemergence, 0 to 100 scale (0 no effect, 100 complete control); for Ragweed plant response rating (0 to 100 scale, 0 is no effect, 100 is complete control): Preemergence, 500 g ai/ha, visual injury approx. 10 d
Procedure, shortened: as §1

[11] = system: barnyardgrass (Echinochloa crus-galli); assay: Test A preemergence; conditions: for Plant response rating, Barnyardgrass: 125 g ai/ha, preemergence, 0 to 100 scale (0 no effect, 100 complete control); for Barnyardgrass plant response rating (0 to 100 scale, 0 is no effect, 100 is complete control): Preemergence, 500 g ai/ha, visual injury approx. 10 d
Procedure, shortened: as §1

Kochia (Kochia scoparia) [12] = assay: Test A preemergence; conditions: for Plant response rating, Kochia: 125 g ai/ha, preemergence, 0 to 100 scale (0 no effect, 100 complete control); for Kochia plant response rating (0 to 100 scale, 0 is no effect, 100 is complete control): Preemergence, 500 g ai/ha, visual injury approx. 10 d
Procedure, shortened: as §1

[13] = system: pigweed (Amaranthus retroflexus); assay: Test A preemergence; conditions: for Plant response rating, Pigweed: 125 g ai/ha, preemergence, 0 to 100 scale (0 no effect, 100 complete control); for Pigweed plant response rating (0 to 100 scale, 0 is no effect, 100 is complete control): Preemergence, 500 g ai/ha, visual injury approx. 10 d
[14] = system: ryegrass, Italian (Italian ryegrass, Lolium multiflorum); assay: Test A preemergence; conditions: for Plant response rating, Ryegrass, Italian: 125 g ai/ha, preemergence, 0 to 100 scale (0 no effect, 100 complete control); for Ryegrass, Italian plant response rating (0 to 100 scale, 0 is no effect, 100 is complete control): Preemergence, 500 g ai/ha, visual injury approx. 10 d
Procedure, shortened: as §1

[15] = system: giant foxtail (Setaria faberii); assay: Test A preemergence; conditions: for Plant response rating, Foxtail, Giant: 125 g ai/ha, preemergence, 0 to 100 scale (0 no effect, 100 complete control); for Foxtail, Giant plant response rating (0 to 100 scale, 0 is no effect, 100 is complete control): Preemergence, 500 g ai/ha, visual injury approx. 10 d
Procedure, shortened: as §1

rice (Oryra sativa) = assay: Test B flooded paddy test; conditions: Flood, 0 to 100 scale where 0 is no effect and 100 is complete control, 13 to 15 d
Procedure, shortened: (§2)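 Flooding to 3 cm over soil accompanied treatment, which consisted of adding compound to the standing water around 2-leaf plants; depth was then maintained. Visual assessment versus controls followed at 13 to 15 d (scale 0–100, 0 meaning no effect).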

[16] = system: barnyardgrass (Echinochloa crus-galli); assay: Test B flooded paddy test; conditions: Flood, 0 to 100 scale where 0 is no effect and 100 is complete control, 13 to 15 d
Procedure, shortened: as §2

[17] = system: sedge, umbrella (small-flower umbrella sedge, Cyperus difformis); assay: Test B flooded paddy test; conditions: Flood, 0 to 100 scale where 0 is no effect and 100 is complete control, 13 to 15 d
Procedure, shortened: as §2

[18] = system: ducksalad (Heteranthera limosa); assay: Test B flooded paddy test; conditions: Flood, 0 to 100 scale where 0 is no effect and 100 is complete control, 13 to 15 d
Procedure, shortened: as §2

Row | Structure (SMILES) | Galium plant response rating [1] | Plant response rating, Galium [1] | Blackgrass plant response rating [2] | Plant response rating, Blackgrass [2] | Ragweed plant response rating [3] | Plant response rating, Ragweed [3] | Corn plant response rating (corn (Zea mays)) | Plant response rating, Corn (corn (Zea mays)) | Barnyardgrass plant response rating [4] | Plant response rating, Barnyardgrass [4] | Kochia plant response rating (Kochia (Kochia scoparia) [5]) | Plant response rating, Kochia (Kochia (Kochia scoparia) [5]) | Pigweed plant response rating [6] | Plant response rating, Pigweed [6] | Ryegrass, Italian plant response rating [7] | Plant response rating, Ryegrass, Italian [7] | Wheat plant response rating [8] | Plant response rating, Wheat [8] | Foxtail, Giant plant response rating [9] | Plant response rating, Foxtail, Giant [9] | also measured
1 | Cc1cc(C2CN(C)C(=O)C2C(=O)Nc2ccccc2C(F)(F)F)ccc1F (stereo not drawn) [Compound 406] | 50 | 50 | 30 | 50 | 20 | 20 | 20 | 70 | 90 | 90 | 40 | 50 | 20 | 30 | 30 | 40 | 40 | 70 | 80 | 80 | Plant response rating, Ragweed [10]: 0; Ragweed plant response rating (0 to 100 scale, 0 is no effect, 100 is complete control) [10]: 40; Plant response rating, Barnyardgrass [11]: 90; Barnyardgrass plant response rating (0 to 100 scale, 0 is no effect, 100 is complete control) [11]: 90; Plant response rating, Kochia (Kochia (Kochia scoparia) [12]): 0; Kochia plant response rating (0 to 100 scale, 0 is no effect, 100 is complete control) (Kochia (Kochia scoparia) [12]): 40; Plant response rating, Pigweed [13]: 20; Pigweed plant response rating (0 to 100 scale, 0 is no effect, 100 is complete control) [13]: 50; Plant response rating, Ryegrass, Italian [14]: 20; Ryegrass, Italian plant response rating (0 to 100 scale, 0 is no effect, 100 is complete control) [14]: 50; Plant response rating, Foxtail, Giant [15]: 90; Foxtail, Giant plant response rating (0 to 100 scale, 0 is no effect, 100 is complete control) [15]: 90; Plant response rating, Rice (rice (Oryra sativa); 250 g ai/ha): 0; Plant response rating, Barnyardgrass ([16]; 250 g ai/ha): 70; Plant response rating, Sedge, Umbrella ([17]; 250 g ai/ha): 0; Plant response rating, Ducksalad ([18]; 250 g ai/ha): 80
2 | Cc1ccc(F)c(NC(=O)C2C(=O)NCC2c2ccc(F)c(F)c2)c1 (stereo not drawn) [Compound 408] | 0 | 0 | 0 | 0 | 0 | 0 | 0 | 0 | 0 | 0 | 0 | 0 | 0 | 0 | 0 | 0 | 0 | 0 | 0 | 0 | Plant response rating, Ragweed [10]: 0; Ragweed plant response rating (0 to 100 scale, 0 is no effect, 100 is complete control) [10]: 0; Plant response rating, Barnyardgrass [11]: 0; Barnyardgrass plant response rating (0 to 100 scale, 0 is no effect, 100 is complete control) [11]: 0; Plant response rating, Kochia (Kochia (Kochia scoparia) [12]): 0; Kochia plant response rating (0 to 100 scale, 0 is no effect, 100 is complete control) (Kochia (Kochia scoparia) [12]): 0; Plant response rating, Pigweed [13]: 0; Pigweed plant response rating (0 to 100 scale, 0 is no effect, 100 is complete control) [13]: 0; Plant response rating, Ryegrass, Italian [14]: 0; Ryegrass, Italian plant response rating (0 to 100 scale, 0 is no effect, 100 is complete control) [14]: 0; Plant response rating, Foxtail, Giant [15]: 0; Foxtail, Giant plant response rating (0 to 100 scale, 0 is no effect, 100 is complete control) [15]: 0; Plant response rating, Rice (rice (Oryra sativa); 500 g ai/ha): 0; Plant response rating, Barnyardgrass ([16]; 500 g ai/ha): 0; Plant response rating, Sedge, Umbrella ([17]; 500 g ai/ha): 0; Plant response rating, Ducksalad ([18]; 500 g ai/ha): 0
3 | Cc1cccc(NC(=O)C2C(=O)NCC2c2ccc(F)c(F)c2)c1F (stereo not drawn) [Compound 409] | 0 | 0 | 10 | 20 | 0 | 0 | 0 | 0 | 60 | 70 | 0 | 30 | 0 | 20 | 0 | 0 | 0 | 0 | 60 | 80 | Plant response rating, Ragweed [10]: 0; Ragweed plant response rating (0 to 100 scale, 0 is no effect, 100 is complete control) [10]: 0; Plant response rating, Barnyardgrass [11]: 70; Barnyardgrass plant response rating (0 to 100 scale, 0 is no effect, 100 is complete control) [11]: 80; Plant response rating, Kochia (Kochia (Kochia scoparia) [12]): 0; Kochia plant response rating (0 to 100 scale, 0 is no effect, 100 is complete control) (Kochia (Kochia scoparia) [12]): 0; Plant response rating, Pigweed [13]: 0; Pigweed plant response rating (0 to 100 scale, 0 is no effect, 100 is complete control) [13]: 10; Plant response rating, Ryegrass, Italian [14]: 0; Ryegrass, Italian plant response rating (0 to 100 scale, 0 is no effect, 100 is complete control) [14]: 0; Plant response rating, Foxtail, Giant [15]: 80; Foxtail, Giant plant response rating (0 to 100 scale, 0 is no effect, 100 is complete control) [15]: 90; Plant response rating, Rice (rice (Oryra sativa); 500 g ai/ha): 30; Plant response rating, Barnyardgrass ([16]; 500 g ai/ha): 40; Plant response rating, Sedge, Umbrella ([17]; 500 g ai/ha): 0; Plant response rating, Ducksalad ([18]; 500 g ai/ha): 40

— patent US12077503B2, “Substituted cyclic amides and their use as herbicides” (FMC CORPORATION, priority 2015, dated 2024)
